Here are results for 17 molecules from patent publication US20240150293A1, “SPIROCYCLOHEXANE DERIVATIVES, PHARMACEUTICAL COMPOSITIONS CONTAINING THEM AND THEIR USES AS ANTI-APOPTOTIC INHIBITORS” (LES LABORATOIRES SERVIER, priority 2021, published 2024).

Structures are written as SMILES. Like-named read-outs stand apart in the source and are kept apart here.

Experiment [1] relates to NCI-H929 cell lines. Put plainly: In vitro cytotoxicity, CellTiter-Glo (CTG) assay (Example B, Method B). Format: cell-based. The following applies: Homo sapiens, NCI-H929, 48 h, NCI-H929 cells, 48 h incubation, read-out: C50. The protocol: Cellular viability was monitored with the cell viability assay (Cell Titer-Glo®) on NCI-H929 cell lines. The CellTiter-Glo® (CTG) Luminescent Cell Viability Assay (from Promega) is a homogeneous method to determine the number of viable cells in culture based on quantitation of the ATP present, which signals the presence of metabolically active cells.
Concentration response of test compounds are performed with 10 mM stock solutions (DMSO), 11-points curve, in a 384-well compound plate. The assay plate is prepared by stamping 120 nL from compound dilution plate of all different concentrations (e.g. 10 mM to have final 30 μM assay test) into a cell culture microplate, using Echo acoustic liquid handling (Labcyte, Beckman). 40 μl of cell solution is added and cells are incubated with compounds for 48 h at 37° C., 5% CO2. CTG was added to the cells (according to the manufacturer instructions) and luminescence intensity was recorded using the Pherastar plate reader (BMG).
This assay provides in vitro cellular efficacy of compounds of Formula (I) tested, measuring the C50, defined as the concentration needed to reach 50% of the cellular viability.

The target of experiment [2] is Cy5-labelled Mcl1 (amino acids 171-321) C286S protein (UniProtKB Q07820) (Homo sapiens (Human), UniProt Q07820, C286S). Put plainly: Inhibition of Mcl-1 by the fluorescence quenching assay (Example A, Method B). Format: binding. The gist of the method: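 Eleven-point compound series incubated 2 h at room temperature with 1 nM Cy5-tagged protein and quencher-labelled PUMA peptide at 10, 20 or 400 nM in HEPES/NaCl/Tween 20, pH 7.4, 5% DMSO. IC50 for 50% fluorescence increase by 4-parameter fit, then Ki derived (complete cKi or estimated eKi).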
Chain of Cy5-labelled Mcl1 (amino acids 171-321) C286S protein (Q07820 171-321 C286S): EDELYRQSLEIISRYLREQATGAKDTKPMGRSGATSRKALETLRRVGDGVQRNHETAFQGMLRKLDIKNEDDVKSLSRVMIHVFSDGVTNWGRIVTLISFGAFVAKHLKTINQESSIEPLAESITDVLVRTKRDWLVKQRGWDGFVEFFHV

For orientation: Ki means the dissociation constant of the complex between target and ligand, obtained from inhibition or displacement. For `Cc1c(Cl)cccc1N[C@]1(C(=O)O)CC[C@]2(CC1)c1ccc(F)cc1CN2C[C@@H](C)COc1ccnc2c1[C@H](C)CCC2` [Example 52, (1s,4S)-4-(3-chloro-2-methylanilino)-5′-fluoro-2′-[(2R)-2-methyl-3-{[(5R)-5-methyl-5,6,7,8-tetrahydroquinolin-4-yl]oxy}propyl]-2′,3′-dihydrospiro[cyclohexane-1,1′-isoindole]-4-carboxylic acid], the IC50 in experiment [1] turned out to be 454 nM. The Ki in experiment [2] (Ki determined from IC50) worked out at 0.583 nM.

For the molecule `Cc1ccc2c(c1)CN(C[C@@H](C)COc1ccnc3c1[C@H](C)CCC3)[C@]21CC[C@](Nc2cccc(Cl)c2C)(C(=O)O)CC1` [Example 53, (1s,4S)-4-(3-chloro-2-methylanilino)-5′-methyl-2′-[(2R)-2-methyl-3-{[(5R)-5-methyl-5,6,7,8-tetrahydroquinolin-4-yl]oxy}propyl]-2′,3′-dihydrospiro[cyclohexane-1,1′-isoindole]-4-carboxylic acid], in experiment [1], the IC50 stood at 451 nM. For the same molecule, in experiment [2] (Ki determined from IC50), the Ki came to 1.5 nM.

As for `Cc1ccc2c(c1)CN(C[C@@H](C)COc1ccnc3c1[C@H](C)CCC3)[C@]21CC[C@](Nc2ccc(F)c(Cl)c2)(C(=O)O)CC1` [Example 54, (1s,4S)-4-(3-chloro-4-fluoroanilino)-5′-methyl-2′-[(2R)-2-methyl-3-{[(5R)-5-methyl-5,6,7,8-tetrahydroquinolin-4-yl]oxy}propyl]-2′,3′-dihydrospiro[cyclohexane-1,1′-isoindole]-4-carboxylic acid], the IC50 in experiment [1] came to 177 nM. The Ki in experiment [2] (Ki determined from IC50) turned out to be 0.177 nM.

Regarding `Cc1ccc2c(c1)CN(C[C@@H](C)COc1ccnc3c1[C@H](C)CCC3)[C@]21CC[C@](Nc2cccc(Cl)c2)(C(=O)O)CC1` [Example 55, (1s,4S)-4-(3-chloroanilino)-5′-methyl-2′-[(2R)-2-methyl-3-{[(5R)-5-methyl-5,6,7,8-tetrahydroquinolin-4-yl]oxy}propyl]-2′,3′-dihydrospiro[cyclohexane-1,1′-isoindole]-4-carboxylic acid], the IC50 in experiment [1] is 181 nM. The Ki in experiment [2] (Ki determined from IC50) turned out to be 0.104 nM.

For the molecule `C[C@@H](COc1ccnc2c1[C@H](C)CCC2)CN1Cc2cc(Cl)ccc2[C@]12CC[C@@](Nc1cccc(Cl)c1)(C(=O)O)CC2` [Example 56, (1s,4S)-5′-chloro-4-(3-chloroanilino)-2′-[(2R)-2-methyl-3-{[(5R)-5-methyl-5,6,7,8-tetrahydroquinolin-4-yl]oxy}propyl]-2′,3′-dihydrospiro[cyclohexane-1,1′-isoindole]-4-carboxylic acid], the IC50 in experiment [1] was determined as 151 nM. The Ki in experiment [2] (Ki determined from IC50) is 0.762 nM.

As to `C[C@@H](COc1ccnc2c1[C@H](C)CCC2)C[C@H]1Cc2ccccc2[C@]12CC[C@@](Nc1cccc(Cl)c1)(C(=O)O)CC2` [Example 653, (1r,2′S,4S)-4-(3-chloroanilino)-2′-[(2R)-2-methyl-3-{[(5R)-5-methyl-5,6,7,8-tetrahydroquinolin-4-yl]oxy}propyl]-2′,3′-dihydrospiro[cyclohexane-1,1′-indene]-4-carboxylic acid], the IC50 in experiment [1] was 113 nM. Further, in experiment [2], the Ki came out at 0.282 nM.

As to `C[C@@H](COc1ccnc2c1[C@H](C)CCC2)C[C@H]1Cc2ccccc2[C@]12CC[C@@](Nc1ccc(F)c(Cl)c1F)(C(=O)O)CC2` [Example 707, (1r,2′S,4S)-4-(3-chloro-2,4-difluoroanilino)-2′-[(2R)-2-methyl-3-{[(5R)-5-methyl-5,6,7,8-tetrahydroquinolin-4-yl]oxy}propyl]-2′,3′-dihydrospiro[cyclohexane-1,1′-indene]-4-carboxylic acid], in experiment [1], the IC50 stood at 230 nM. Further, the Ki in experiment [2] amounted to 0.585 nM.

On to `C[C@@H](COc1ccnc2c1[C@H](C)CCC2)C[C@H]1Cc2ccccc2[C@]12CC[C@@](Nc1ccc(Cl)c(Cl)c1)(C(=O)O)CC2` [Example 715, (1r,2′S,4S)-4-(3,4-dichloroanilino)-2′-[(2R)-2-methyl-3-{[(5R)-5-methyl-5,6,7,8-tetrahydroquinolin-4-yl]oxy}propyl]-2′,3′-dihydrospiro[cyclohexane-1,1′-indene]-4-carboxylic acid], for which, in experiment [1], the IC50 was determined as 1290 nM. Besides, the Ki in experiment [2] was 2.01 nM.

As for `C[C@@H](COc1ccnc2c1[C@H](C)CCC2)C[C@H]1Cc2ccccc2[C@]12CC[C@@](Oc1cccc(Cl)c1)(C(=O)O)CC2` [Example 717, (1r,2′S,4S)-4-(3-chlorophenoxy)-2′-[(2R)-2-methyl-3-{[(5R)-5-methyl-5,6,7,8-tetrahydroquinolin-4-yl]oxy}propyl]-2′,3′-dihydrospiro[cyclohexane-1,1′-indene]-4-carboxylic acid], the IC50 in experiment [1] was determined as 367 nM. Also, the inhibition constant (Ki) in experiment [2] was 2.28 nM.

Turning to `C[C@@H](COc1ccnc2c1[C@H](C)CCC2)CC1=Cc2c(Cl)c(Cl)ccc2[C@]12CC[C@@](Nc1cccc(Cl)c1)(C(=O)O)CC2` [Example 750, (1r,4R)-4′,5′-dichloro-4-(3-chloroanilino)-2′-[(2R)-2-methyl-3-{[(5R)-5-methyl-5,6,7,8-tetrahydroquinolin-4-yl]oxy}propyl]spiro[cyclohexane-1,1′-indene]-4-carboxylic acid], in experiment [1], the IC50 was 378 nM. Also, the inhibition constant (Ki) in experiment [2] worked out at 1.06 nM.

On to `C[C@@H](COc1ccnc2c1[C@H](C)CCC2)C[C@H]1Cc2cccc(F)c2[C@]12CC[C@@](Nc1cccc(Cl)c1)(C(=O)O)CC2` [Example 763, (1r,2′S,4S)-4-(3-chloroanilino)-7′-fluoro-2′-[(2R)-2-methyl-3-{[(5R)-5-methyl-5,6,7,8-tetrahydroquinolin-4-yl]oxy}propyl]-2′,3′-dihydrospiro[cyclohexane-1,1′-indene]-4-carboxylic acid], for which the IC50 in experiment [1] came out at 118 nM. The Ki in experiment [2] came out at 0.0813 nM.

Regarding `C[C@@H](COc1ccnc2c1[C@H](C)CCC2)C[C@H]1Cc2cc(F)c(F)cc2[C@]12CC[C@@](Nc1cccc(Cl)c1)(C(=O)O)CC2` [Example 775, (1r,2′S,4S)-4-(3-chloroanilino)-5′,6′-difluoro-2′-[(2R)-2-methyl-3-{[(5R)-5-methyl-5,6,7,8-tetrahydroquinolin-4-yl]oxy}propyl]-2′,3′-dihydrospiro[cyclohexane-1,1′-indene]-4-carboxylic acid], the IC50 in experiment [1] was found to be 84.4 nM. For the same molecule, the inhibition constant Ki in experiment [2] worked out at 0.518 nM.

For the molecule `C[C@@H](COc1ccnc2c1[C@H](C)CCC2)C[C@H]1Cc2cc(Cl)ccc2[C@]12CC[C@@](Nc1cccc(Cl)c1)(C(=O)O)CC2` [Example 778, (1r,2′S,4S)-5′-chloro-4-(3-chloroanilino)-2′-[(2R)-2-methyl-3-{[(5R)-5-methyl-5,6,7,8-tetrahydroquinolin-4-yl]oxy}propyl]-2′,3′-dihydrospiro[cyclohexane-1,1′-indene]-4-carboxylic acid], the IC50 in experiment [1] was 67.2 nM. For the same molecule, in experiment [2], the inhibitory constant (Ki) stood at 0.177 nM.

As to `COc1ccc2c(c1)[C@]1(CC[C@@](Nc3cccc(Cl)c3)(C(=O)O)CC1)[C@H](C[C@@H](C)COc1ccnc3c1[C@H](C)CCC3)C2` [Example 782, (1r,2′R,4R)-4-(3-chloroanilino)-6′-methoxy-2′-[(2R)-2-methyl-3-{[(5R)-5-methyl-5,6,7,8-tetrahydroquinolin-4-yl]oxy}propyl]-2′,3′-dihydrospiro[cyclohexane-1,1′-indene]-4-carboxylic acid], the IC50 in experiment [1] worked out at 235 nM. The Ki in experiment [2] turned out to be 0.254 nM.

On to `CCOc1ccc2c(c1)[C@]1(CC[C@@](Nc3ccc(F)c(Cl)c3)(C(=O)O)CC1)[C@@H](C[C@@H](C)COc1ccnc3c1[C@H](C)CCC3)C2` [Example 785, (1r,2′S,4S)-4-(3-chloro-4-fluoroanilino)-6′-ethoxy-2′-[(2R)-2-methyl-3-{[(5R)-5-methyl-5,6,7,8-tetrahydroquinolin-4-yl]oxy}propyl]-2′,3′-dihydrospiro[cyclohexane-1,1′-indene]-4-carboxylic acid], for which the IC50 in experiment [1] came out at 61 nM. Further, the Ki in experiment [2] was determined as 0.122 nM.

In the case of `CCCOc1ccc2c(c1)[C@]1(CC[C@@](Nc3cccc(Cl)c3)(C(=O)O)CC1)[C@@H](C[C@@H](C)COc1ccnc3c1[C@H](C)CCC3)C2` [Example 787, (1r,2′S,4S)-4-(3-chloroanilino)-2′-[(2R)-2-methyl-3-{[(5R)-5-methyl-5,6,7,8-tetrahydroquinolin-4-yl]oxy}propyl]-6′-propoxy-2′,3′-dihydrospiro[cyclohexane-1,1′-indene]-4-carboxylic acid], in experiment [1], the IC50 was found to be 103 nM. In addition, the Ki in experiment [2] came to 0.0573 nM.

In the case of `CC(C)COc1ccc2c(c1)[C@]1(CC[C@@](Nc3cccc(Cl)c3)(C(=O)O)CC1)[C@@H](C[C@@H](C)COc1ccnc3c1[C@H](C)CCC3)C2` [Example 788, (1r,2′S,4S)-4-(3-chloroanilino)-2′-[(2R)-2-methyl-3-{[(5R)-5-methyl-5,6,7,8-tetrahydroquinolin-4-yl]oxy}propyl]-6′-(2-methylpropoxy)-2′,3′-dihydrospiro[cyclohexane-1,1′-indene]-4-carboxylic acid], in experiment [1], the IC50 stood at 262 nM. The Ki in experiment [2] was 0.241 nM.
